Reference: patent publication US20090312310A1 (priority 2006, published 2009)
pIC50: −log10 of the molar value.

Target: T1, Mdm2/p53 binding (Homo sapiens, UniProt Q00987, L33E)
T1 construct: having Mdm2 amino acids at positions 25 to 108
Assay: Mdm2/p53 binding assay (HTRF, His-p53 / GST-Mdm2)
Conditions: His-p53 (aa 1-132) and GST-Mdm2 (aa 25-108, L33E), 6.25 nM each; 25° C., 1 hour
Description: Next, a test compound was diluted with protein buffer solution containing 10% DMSO, and this test compound dilution was added in an amount of 4 μL/well to the plate.
These dilutions were added in an amount of 8 μL/well (total reaction solution volume: 20 μl/well). Then, the plate was left at 25° C. for 1 hour.
C (correction factor)=(A−BI)/D
The R value calculated from the well supplemented with His-p53, GST-Mdm2, the test compound, and each antibody was defined as R (sample). The R value calculated from the well supplemented with His-p53, GST-Mdm2, and each antibody but without the test compound was defined as R (control). The R value calculated from the well supplemented with GST-Mdm2, the test compound, and each antibody but without His-p53 was defined as R (background). T/C was calculated from the formula shown below. An IC50 value for Mdm2/p53 binding was calculated by sigmoid fitting using Prism (GraphPad Software).
T/C=(R (sample)−R (background))/(R (control)−R (background))

T1 sequence (Q00987 25-108 L33E, species assumed): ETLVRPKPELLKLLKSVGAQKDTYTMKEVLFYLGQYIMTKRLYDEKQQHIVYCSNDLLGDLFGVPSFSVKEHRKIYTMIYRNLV

| pIC50 | Compound |
| --- | --- |
| 7.89 | CC(C)C1=C(C(=O)N2[C@H](C)CC[C@H]2C(=O)N2CCN(C)[C@H](C)C2)SC2=N[C@@](C)(c3ccc(Cl)cc3)[C@@H](c3ccc(C(F)(F)F)cc3)N21 [Example 180, (5R,6S)-6-(4-Chlorophenyl)-2-{[(2S,5R)-2-{[(3R)-3,4-dimethylpiperazin-1-yl]carbonyl}-5-methylpyrrolidin-1-yl]carbonyl}-3-isopropyl-6-methyl-5-[4-(trifluoromethyl)phenyl]-5,6-dihydroimidazo[2,1-b][1,3]thiazole] |
| 7.10 | CNc1cc([C@]2(C)N=C3SC(C(=O)N4CCC[C@H]4C(=O)N4CCN(C)CC4)=C(C(C)C)N3[C@@H]2c2ccc(Cl)cc2)ccc1Cl [Example 102] |
| 6.84 | CC(C)C1=C(C(=O)N2CCC[C@H]2c2n[nH]c(=O)o2)SC2=N[C@@](C)(c3ccc(Cl)cc3)[C@@H](c3ccc(Cl)cc3)N21 [Example 89, 5-((2S)-1-{[(5R,6S)-5,6-Bis(4-chlorophenyl)-3-isopropyl-6-methyl-5,6-dihydroimidazo[2,1-b][1,3]thiazol-2-yl]carbonyl}pyrrolidin-2-yl)-1,3,4-oxadiazol-2(3H)-one] |
| 7.74 | CC[C@@H]1CC[C@@H](C(=O)N2C[C@@H](C)N[C@@H](C)C2)N1C(=O)C1=C(C(C)C)N2C(=N[C@@](C)(c3ccc(Cl)cc3)[C@H]2c2ccc(Cl)cc2)S1 [Example 105, (5R,6S)-5,6-Bis(4-chlorophenyl)-2-[((2S,5R)-2-{[(3R,5S)-3,5-dimethylpiperazin-1-yl]carbonyl}-5-ethylpyrrolidin-1-yl)carbonyl]-3-isopropyl-6-methyl-5,6-dihydroimidazo[2,1-b][1,3]thiazole] |
| 7.64 | CC(=O)N(C)C[C@H](C)N(C)C(=O)C1=C(C(C)C)N2C(=N[C@@](C)(c3ccc(Cl)cc3)[C@H]2c2ccc(Cl)cc2)S1 [Example 74, (5R,6S)—N-{(1S)-2-[Acetyl(methyl)amino]-1-methylethyl}-5,6-bis(4-chlorophenyl)-3-isopropyl-N,6-dimethyl-5,6-dihydroimidazo[2,1-b][1,3]thiazole-2-carboxamide] |
| 7.08 | CC(C)C1=C(C(=O)N(C)[C@H]2C[C@@H](O)C2)SC2=N[C@@](C)(c3ccc(Cl)cc3)[C@@H](c3ccc(Cl)cc3)N21 [Example 164, (5R,6S)-5,6-Bis(4-chlorophenyl)-N-(cis-3-hydroxycyclobutyl)-3-isopropyl-N,6-dimethyl-5,6-dihydroimidazo[2,1-b][1,3]thiazole-2-carboxamide] |
| 7.72 | CC(C)C1=C(C(=O)N2[C@H](C)CC[C@H]2C(=O)N2CCN(CCO)[C@H](C)C2)SC2=N[C@@](C)(c3ccc(Cl)cc3)[C@@H](c3ccc(Cl)cc3)N21 [Example 204, 2-{(2R)-4-[(5R)-1-{[(5R,6S)-5,6-Bis(4-chlorophehyl)-3-isopropyl-6-methyl-5,6-dihydroimidazo[2,1-b][1,3]thiazol-2-yl]carbonyl}-5-methyl-L-prolyl]-2-methylpiperazin-1-yl}ethanol] |
| 8.40 | CC(C)C1=C(C(=O)N(C(C)C)[C@H]2C[C@H](N(C)C)C2)SC2=N[C@@](C)(c3ccc(Cl)cc3)[C@@H](c3ccc(Cl)cc3)N21 [Example 219, (5R,6S)-5,6-Bis(4-chlorophenyl)-N-[trans-3-(dimethylamino)cyclobutyl]-N,3-diisopropyl-6-methyl-5,6-dihydroimidazo[2,1-b][1,3]thiazole-2-carboxamide] |
| 7.89 | CC(C)C1=C(C(=O)N2[C@H](C)CC[C@H]2C(=O)N2C[C@@H](N)[C@H](F)C2)SC2=N[C@@](C)(c3ccc(Cl)cc3)[C@@H](c3ccc(Cl)cc3)N21 [Example 240, (3R,4R)-1-[(5R)-1-{[(5R,6S)-5,6-Bis(4-chlorophenyl)-3-isopropyl-6-methyl-5,6-dihydroimidazo[2,1-b][1,3]thiazol-2-yl]carbonyl}-5-methyl-L-prolyl]-4-fluoropyrrolidin-3-amine] |
| 7.54 | CC(=O)N1CCN(C(=O)CN(CC(C)C)C(=O)C2=C(C(C)C)N3C(=N[C@@](C)(c4ccc(Cl)cc4)[C@H]3c3ccc(Cl)cc3)S2)CC1 [Example 88, (5R,6S)—N-[2-(4-Acetylpiperazin-1-yl)-2-oxoethyl]-5,6-bis(4-chlorophenyl)-N-isobutyl-3-isopropyl-6-methyl-5,6-dihydroimidazo[2,1-b][1,3]thiazole-2-carboxamide] |
| 8.00 | CC(C)C1=C(C(=O)N2[C@H](C)CC[C@H]2C(=O)N2CCN(C)[C@H](C)C2)SC2=N[C@@](C)(c3ccc(Cl)cc3)[C@@H](c3ccc(Cl)c(F)c3)N21 [Example 167, (5R,6S)-5-(4-Chloro-3-fluorophenyl)-6-(4-chlorophenyl)-2-{[(2S,5R)-2-{[(3R)-3,4-dimethylpiperazin-1-yl]carbonyl}-5-methylpyrrolidin-1-yl]carbonyl}-3-isopropyl-6-methyl-5,6-dihydroimidazo[2,1-b][1,3]thiazole] |
| 7.52 | CC[C@@H]1CC[C@@H](C(=O)N2CCN(C(C)=O)[C@H](C)C2)N1C(=O)C1=C(C(C)C)N2C(=N[C@@](C)(c3ccc(Cl)cc3)[C@H]2c2ccc(Br)cc2)S1 [Example 155, (5R,6S)-2-{[(2S,5R)-2-{[(3R)-4-Acetyl-3-methylpiperazin-1-yl]carbonyl}-5-ethylpyrrolidin-1-yl]carbonyl}-5-(4-bromophenyl)-6-(4-chlorophenyl)-3-isopropyl-6-methyl-5,6-dihydroimidazo[2,1-b][1,3]thiazole] |
| 7.34 | CC(C)C1=C(C(=O)N2CCC[C@H]2C(=O)N2CCC[C@H]2C(=O)O)SC2=N[C@@](C)(c3ccc(Cl)cc3)[C@@H](c3ccc(Cl)cc3)N21 [Example 68, 1-{[(5R,6S)-5,6-Bis(4-chlorophenyl)-3-isopropyl-6-methyl-5,6-dihydroimidazo[2,1-b][1,3]thiazol-2-yl]carbonyl}-L-prolyl-L-proline] |
| 7.12 | CC(C)C1=C(C(=O)N(C)C)SC2=N[C@@](C)(c3ccc(Cl)nc3)[C@@H](c3ccc(Cl)cc3)N21 [Example 220, (5R,6S)-5-(4-Chlorophenyl)-6-(6-chloropyridin-3-yl)-3-isopropyl-N,N,6-trimethyl-5,6-dihydroimidazo[2,1-b][1,3]thiazole-2-carboxamide] |
| 6.87 | CC(C)C1=C(C(=O)N2CC[C@H]2C(=O)N(C)C)SC2=N[C@@](C)(c3ccc(Cl)cc3)[C@@H](c3ccc(Cl)cc3)N21 [Example 93, (2S)-1-{[(5R,6S)-5,6-Bis(4-chlorophenyl)-3-isopropyl-6-methyl-5,6-dihydroimidazo[2,1-b][1,3]thiazol-2-yl]carbonyl}-N,N-dimethylazetidine-2-carboxamide] |
| 7.82 | CC(C)C1=C(C(=O)N2[C@H](C)CC[C@H]2C(=O)N2CCN(CCO)[C@H](C)C2)SC2=N[C@@](C)(c3ccc(Cl)nc3)[C@@H](c3ccc(Cl)c(F)c3)N21 [Example 260, 2-{(2R)-4-[(5R)-1-{[(5R,6S)-5-(4-chloro-3-fluorophenyl)-6-(6-chloropyridin-3-yl)-3-isopropyl-6-methyl-5,6-dihydroimidazo[2,1-b][1,3]thiazol-2-yl]carbonyl}-5-methyl-L-prolyl]-2-methylpiperazin-1-yl}ethanol] |
| 7.06 | CC(C)C1=C(CN2CCNC(=O)C2)SC2=NC(C)(c3ccc(Cl)cc3)C(c3ccc(Cl)cc3)N21 (racemic) [Example 18, 4-{[(5R*,6S*)-5,6-Bis(4-chlorophenyl)-3-isopropyl-6-methyl-5,6-dihydroimidazo[2,1-b][1,3]thiazol-2-yl]methyl}piperazin-2-one] |
| 7.29 | CC(C)C1=C(C(=O)N(C)C)SC2=N[C@@](C)(c3ccc(Cl)cc3)[C@@H](c3ccc(Cl)cc3)N21 [Example 39, (5R,6S)-5,6-Bis(4-chlorophenyl)-3-isopropyl-N,N,6-trimethyl-5,6-dihydroimidazo[2,1-b][1,3]thiazole-2-carboxamide] |
| 7.92 | CC(C)C1=C(C(=O)N2CCC[C@H]2COC2CCN(C)CC2)SC2=N[C@@](C)(c3ccc(Cl)cc3)[C@@H](c3ccc(Cl)cc3)N21 [Example 211, (5R,6S)-5,6-Bis(4-chlorophenyl)-3-isopropyl-6-methyl-2-{[(2S)-2-{[(1-methylpiperidin-4-yl)oxy]methyl}pyrrolidin-1-yl]carbonyl}-5,6-dihydroimidazo[2,1-b][1,3]thiazole] |
| 6.71 | CCCCC[C@]1(C)N=C2SC(C(=O)N3CCC[C@H]3C(=O)N(C)C)=C(C(C)C)N2[C@@H]1c1ccc(Cl)cc1 (relative stereo) [Example 99 (Cis-Isomer), 1-{[(5R*,6S*)-5-(4-chlorophenyl)-3-isopropyl-6-methyl-6-pentyl-5,6-dihydroimidazo[2,1-b][1,3]thiazol-2-yl]carbonyl}-N,N-dimethyl-L-prolinamide] |
